Test results taken from patent US20220265667A1 (priority 2019, published 2022).
Read-outs that look alike come from different tables or passages of the source.

Key:
[1] = test system: patient with therapy-resistant systemic mastocytosis; experiment: Human in-vivo off-label clinical test, symptom intensity by visual analog score (VAS)
Procedure: The results of the clinical test were closely monitored, captured and documented together with patient. The patient is and diagnosed with systemic mastocytosis (WHO criteria, KIT816V positiv) with official diagnosis. […] The current daily treatment of the patient is: H1 antihistamine 3× daily, cromolyn 4×200 mg daily, PPI 110 mg daily, Vitamine C/Vitamine D upon need, Actonel, upon need decortin 40 to 60 mg.

[2] = test system: murine bone marrow-derived mast cells (BMMCs); experiment: In vitro release of β-hexosaminidase (degranulation) from IgE-preloaded murine bone marrow-derived mast cells; type: cell-based, mice
Procedure: According to the technique established by Razin et al. (Proc. Natl. Acad. Sci. USA 1981, 78:2559-2561), bone marrow cells (1×10^6/ml) from 6 to 8 week old mice (129/Sv×C57BL/6) were cultured (37° C. and 5% CO2) as single cell suspensions in RPMI 1640 medium (Sigma-Aldrich, Munich, Germany) supplemented with 15% fetal calf serum (FCS), 1% X63Ag8-653-conditioned medium (Karasuyama and Melchers, Eur. J. Immunol. 1988, 18:97-104), 2 mM L-glutamine, 10 μM β-mercaptoethanol, 50 units/ml penicillin, and […] streptomycin. At weekly intervals, the non-adherent cells were reseeded at 5×10^5 cells/ml in fresh medium. After 4-6 weeks in culture, greater than 99% of the cells were KIT- and […] as assessed by fluorescence-activated cell sorting (FACS) using phycoerythrin-labeled anti-KIT antibodies (Pharmingen, Mississauga, Canada) and fluorescein isothiocyanate (FITC)-labelled hamster anti-mouse FcεRIα antibodies (eBioscience, Frankfurt, Germany), respectively. The resulting cells are called bone marrow-derived mast cells (BMMCs).
For degranulation studies, BMMCs were preloaded with 0.15 μg/ml IgE anti-DNP (dinitrophenyl; Sigma Aldrich, Munich, Germany) overnight at 37° C. The cells were then washed and resuspended in Tyrode's buffer (130 mM NaCl, 5 mM KCl, 1.4 mM CaCl2, 1 mM MgCl2, 5.6 mM glucose, and 0.1% bovine serum albumin (BSA) in 10 mM Hepes, pH 7.4).
Subsequently, the cells were left unstimulated (unst) or stimulated with 20 ng/ml antigen (Ag: dinitrophenyl-human serum albumin ([DNP-HSA]; dissolved in medium); Sigma Aldrich, Munich, Germany) for 30 min. The degree of degranulation was determined by measuring the release of β-hexosaminidase (Nishizumi et al., J Immunol 1997; 158:2350-2355). Experiments were performed in triplicates.

[3] = test system: human nasal tissue mast cells activated with LPS; experiment: Ex vivo LPS-induced tryptase release (degranulation) of human nasal tissue mast cells; type: cell-based; conditions: for Tryptase: with LPS; for inhibition at 3 µM / inhibition at 10 µM / inhibition at 30 µM / inhibition at 60 µM / IC50: Homo sapiens, Mast cell; for inhibition at 3 µM / inhibition at 10 µM / inhibition at 30 µM / inhibition at 60 µM: read-out: percentage inhibition of degranulation (tryptase); for IC50: read-out: IC50 ex vivo inhibition of tryptase release; for HillSlope / LogIC50: LPS
From the text: Fresh human nasal mucosa was used (middle nasal turbinate), which was surgically removed as standard procedure during nose correction surgeries (septorhinoplasty with conchotomy). Only tissues from those patients who had not previously received medication in the form of cortisone preparations or antihistamines were used. The removed tissue was cleansed immediately after the surgical removal with Epilife Medium (Thermo Fisher Scientific, No. […]500), referred to as “medium” in terms of ex vivo experiments, a chemically defined, serum-free full medium for epithelial cells and keratinocytes. The tissue was then cut into 12 pieces of equal size, cleansed again in the medium, and the exact fresh weight of the cut tissue pieces was determined for later normalization and then stored overnight in cold medium. The weight of the tissue pieces varied between 10 and 20 mg.
After an one hour of pre-incubation with the respective compositions i), ii) or iii), 4 μg/ml lipopolysaccharide (LPS, Sigma-Aldrich GmbH, L4516) was added to each well—except for one well serving as the negative control—in order to induce tryptase degranulation. Then, 250 μl supernatant were taken from each well at the time points of 15 minutes, 60 minutes (one hour), 120 minutes (two hours), 240 minutes (four hours), 480 minutes (eight hours), and 1200 minutes (20 hours) after stimulation with LPS and the supernatants were directly frozen. Immediately after the removal of 250 μl supernatant, the volume in each well was increased to the original level and the original composition by adding 250 μl of the respective composition i), ii) and iii).
For the determination of the amount of degranulated tryptase, the frozen supernatants were thawed at 22° C. and then subjected to a tryptase ELISA Kit from Boster Biological Technology Co., Ltd (No. EZ0898, Assay Range: 156-10000 pg/ml, Sensitivity: <15 pg/ml) according to manufacturer's instructions, and the ELISA measurements were performed with the Multiskan Go instrument from Thermo Scientific and the SkanIt Re 4.1 software.
The statistical analysis was conducted in two steps. In a first step, the raw measurement values were normalized to 10 mg tissue. In a second step, a correction factor was introduced for all time points of supernatant removal to compensate for the 250 μl supernatant taken for analysis at each time and the subsequent re-addition of medium incl. factors. The statistical calculations were performed with Microsoft Excel 2010.
For the analysis, a non-linear regression (variable slope—4-parametric) was used. The program setting “Dose-Response-Inhibition” was applied for an automatic calculation, readout and display of the IC50 values.

[4] = Mus musculus, BMMC, read-out: percentage of inhibition of β-hexosaminidase release

In the case of `CCNC1=Nc2ccc(Cl)cc2C(C)(c2ccccc2)O1` (racemic) [Etifoxine, 6-Chloro-2-N-ethyl-4-methyl-4-phenyl-4H-3,1-benzoxazine-2-amine], the “total clinical symptom intensity score (VAS)” value ([1]; after 6 weeks treatment, VAS baseline value 8, scale 0-10) is reported as 4, the side effects ([1]; during the 6 week oral treatment, one patient) is reported as “No side effects occurred” and the “reduction of total clinical symptom intensity score” value ([1]; one patient, oral 50 to 150 mg daily, over 6 weeks) is reported as 50%. The inhibition at 10 µM [2, 4] was 30%, the inhibition at 30 µM [2, 4] was 68% and the “activity (degranulation) of unstimulated IgE-loaded BMMCs” value ([2]; unstimulated (absence of Ag), independently of the concentration studied) was “not significantly affected”. It also gave a Tryptase ([3]; 3 μM Etifoxine, 15 min) of 1107.7 pg/ml/10 mg tissue, a Tryptase ([3]; 3 μM Etifoxine, 60 min) of 1822.9 pg/ml/10 mg tissue and a Tryptase ([3]; 3 μM Etifoxine, 120 min) of 2116.7 pg/ml/10 mg tissue. For the same molecule, the Tryptase ([3]; 3 μM Etifoxine, 240 min) was 3032.7 pg/ml/10 mg tissue, the Tryptase ([3]; 3 μM Etifoxine, 480 min) was 3622.0 pg/ml/10 mg tissue and the Tryptase ([3]; 3 μM Etifoxine, 1200 min) was 5419.5 pg/ml/10 mg tissue. The Tryptase ([3]; 10 μM Etifoxine, 15 min) was 763.6 pg/ml/10 mg tissue, the Tryptase ([3]; 10 μM Etifoxine, 60 min) was 1252.6 pg/ml/10 mg tissue and the Tryptase ([3]; 10 μM Etifoxine, 120 min) was 2035.3 pg/ml/10 mg tissue. The Tryptase ([3]; 10 μM Etifoxine, 240 min) was 2901.8 pg/ml/10 mg tissue, the Tryptase ([3]; 10 μM Etifoxine, 480 min) was 3275.1 pg/ml/10 mg tissue and the Tryptase ([3]; 10 μM Etifoxine, 1200 min) was 4687.0 pg/ml/10 mg tissue. For the same molecule, the Tryptase ([3]; 30 μM Etifoxine, 15 min) was 676.0 pg/ml/10 mg tissue, the Tryptase ([3]; 30 μM Etifoxine, 60 min) was 857.5 pg/ml/10 mg tissue and the Tryptase ([3]; 30 μM Etifoxine, 120 min) was 1619.4 pg/ml/10 mg tissue. For the same molecule, the Tryptase ([3]; 30 μM Etifoxine, 240 min) was 2276.4 pg/ml/10 mg tissue, the Tryptase ([3]; 30 μM Etifoxine, 480 min) was 2678.2 pg/ml/10 mg tissue and the Tryptase ([3]; 30 μM Etifoxine, 1200 min) was 3675.9 pg/ml/10 mg tissue. It also gave a Tryptase ([3]; 60 μM Etifoxine, 15 min) of 881.1 pg/ml/10 mg tissue, a Tryptase ([3]; 60 μM Etifoxine, 60 min) of 1054.5 pg/ml/10 mg tissue and a Tryptase ([3]; 60 μM Etifoxine, 120 min) of 1592.2 pg/ml/10 mg tissue. The Tryptase ([3]; 60 μM Etifoxine, 240 min) was 2241.2 pg/ml/10 mg tissue, the Tryptase ([3]; 60 μM Etifoxine, 480 min) was 2720.1 pg/ml/10 mg tissue and the Tryptase ([3]; 60 μM Etifoxine, 1200 min) was 3472.1 pg/ml/10 mg tissue. It also gave an inhibition at 3 µM ([3]; 2 h) of 79%, an inhibition at 10 µM ([3]; 2 h) of 83% and an inhibition at 30 µM ([3]; 2 h) of 105%. It also gave an inhibition at 60 µM ([3]; 2 h) of 106%, an inhibition at 3 µM ([3]; 4 h) of 104% and an inhibition at 10 µM ([3]; 4 h) of 107%. It also gave an inhibition at 30 µM ([3]; 4 h) of 123%, an inhibition at 60 µM ([3]; 4 h) of 124% and an IC50 ([3]; 2 hours (120 minutes) after LPS addition) of 14.7 µM. The IC50 ([3]; 4 hours (240 minutes) after LPS addition) was 15.1 µM, the HillSlope ([3]; Tryptase 2 h) was −4.183 and the LogIC50 ([3]; Tryptase 2 h) was 1.168. For the same molecule, the HillSlope ([3]; Tryptase 4 h) was −4.101, the LogIC50 ([3]; Tryptase 4 h) was 1.179 and the “inhibition of LPS-triggered tryptase degranulation achieved (complete)” value ([3]; summary statement, mast cells of human nasal pieces) was 100%.
